Structures can show the parent of a compound that is named as a salt. Where two headings read alike, the source gives them in different places.
Legend:
[1] = Anoxia-induced lethality test in mice (survival in 100% nitrogen); format: in vivo, Male, CD-1 mice; settings: Mus musculus, ip, read-out: ED50, protected from anoxia-induced lethality in mice
Excerpt: To test the protective ability of the compounds of formula I against the physical consequences of anoxia, mice were exposed to an atmosphere of pure nitrogen which killed all of the animals. Intraperitoneal pretreatment of mice with the compounds of formula I protected them against this lethal effect.
ANOXIA-INDUCED LETHALITY TEST IN MICE
The anoxia-induced lethality test in mice evaluates the activity of drugs which protect the animal from deleterious effects of oxygen-lack, such as occurs in conditions of cerebral ischemia. Activity is measured as the survival rate in mice exposed to 100% nitrogen for 80 seconds, a procedure which is lethal to […] of untreated animals.
Test compounds are dissolved in water, or suspended in 0.2% aqueous Tween 80 and are administered i.p., 30 minutes prior to testing. Several doses and a vehicle control are tested, with 8 mice receiving each dose.
Male, CD-1 mice weighing 18-20 g are used. Mice are held separately within a cage in a modified plastic, air-tight desiccator which is connected to a tank of compressed 100% nitrogen gas.
Delivery of the anoxic gas is controlled by means of a toggle valve, and exposure is terminated by rapidly removing the mice from the desiccator. All operations are timed with a stopwatch. An ED50 value is determined from the percentage of mice which survive in each group. Drugs which reduce the anoxia-induced lethality solely by lowering body temperature are excluded.

[2] = Passive avoidance test: prevention of scopolamine-induced memory impairment in rats; format: in vivo, male Sprague-Dawley rats; settings: 30 mg/kg test compound, oral, 75 or 90 min before training; scopolamine 2 mg/kg s.c.; retention test 24 h later, 180 seconds access
Method: In the test, a rat must remember to avoid a darkened enclosure where it had been shocked the previous day.
This passive avoidance procedure uses a test chamber divided into two compartments: a lighted compartment and a dark compartment.
The two compartments are separated by a solenoid-operated slide door. An inescapable foot shock (750 μA for two seconds) can be presented to the grid floor of the dark compartment.
On the training day, male Sprague-Dawley rats (eight animals are tested per group) are placed in the lighted compartment and given access to the adjacent dark compartment. Upon entering the dark compartment, the rat is given an inescapable foot shock. Twenty-four hours later retention (memory) is tested: the rat is placed in the lighted compartment and allowed access to the dark compartment for 180 seconds.
Compounds to be tested are dissolved in 0.9% saline or suspended in Tween 80 (0.2% v/v in saline) or methyl cellulose (0.5% w/v in distilled water). […] Appropriate vehicle and control groups are included with each experiment. Each animal is given a single training trial.

[3] = scopolamine alone; passive avoidance; cited from earlier work

SMILES | ED50 [1] | other results
Br.Cc1c2n(c3ccccc13)CCC(C)(C)C2N(C)C (stereo not drawn) [Example 4, 6,7,8,9-Tetrahydro-N,N,8,8,10-pentamethylpyrido[1,2-a]indol-9-amine Hydrobromide] | 5 mg/kg | –
COc1ccc2c(C)c3n(c2c1)CCCC3N(C)C.Cl (stereo not drawn) [Example 28, 6,7,8,9-Tetrahydro-3-methoxy-N,N,10-trimethylpyrido[1,2-a]indol-9-amine Hydrochloride] | 20 mg/kg | –
Cc1c2n(c3ccccc13)CCC(C)(C)C2N.Cl (stereo not drawn) [Example 29, 6,7,8,9-Tetrahydro-8,8,10-trimethylpyrido[1,2-a]indol-9-amine Hydrochloride] | 17.2 mg/kg | –
C#CCNC1CCCn2c1c(C)c1ccccc12.Cl (stereo not drawn) [Example 7, 6,7,8,9-Tetrahydro-10-methyl-N-(2-propynyl)pyrido[1,2-a]indol-9-amine Hydrochloride] | 22 mg/kg | –
Cc1c2n(c3ccccc13)CCC(C)(C)C2N(C)C1CCCCC1 (stereo not drawn) [Example 32, N-Cyclohexyl-6,7,8,9-tetrahydro-N,8,8,10-tetramethylpyrido[1,2-a]indol-9-amine] | 8.8 mg/kg | –
Cc1c2n(c3ccccc13)CCC(C)(C)C2N1CCCC1 (stereo not drawn) [Example 1, 6,7,8,9-Tetrahydro-8,8,10-trimethyl-9-(1-pyrrolidinyl)-pyrido[1,2,a]indole Hydrochloride] | 11.2 mg/kg | mean entry latency on retention day [2]: 152 s
Cc1c2n(c3ccccc13)CCCC2N1CCOCC1.Cl (stereo not drawn) [Example 9, 6,7,8,9-Tetrahydro-10-methyl-9-(4-morpholinyl)-pyrido[1,2-a]indole Hydrochloride] | 32.4 mg/kg | –
Cc1c2n(c3ccc(Br)cc13)CCCC2N1CCCCC1.Cl (stereo not drawn) [Example 19, 2-Bromo-6,7,8,9-tetrahydro-10-methyl-9-(1-piperidinyl)-pyrido[1,2-a]indole Hydrochloride] | 110 mg/kg | –
Cc1c2n(c3ccccc13)CCCC2N1CCCCC1.Cl (stereo not drawn) [Example 8, 6,7,8,9-Tetrahydro-10-methyl-9-(1-piperidinyl)-pyrido[1,2-a]indole Hydrochloride] | 55.7 mg/kg | –
CCC1(CC)CCn2c(c(C)c3ccccc32)C1N1CCCC1 (stereo not drawn) [Example 6, 8,8-diethyl-6,7,8,9-tetrahydro-10-methyl-9-(1-pyrolidinyl)pyrido[1,2-a]indole Hydrochloride] | 20 mg/kg | –
Cc1c2n(c3ccccc13)CCCC2N(C)C.Cl (stereo not drawn) [Example 3, 6,7,8,9-Tetrahydro-N,N,10-trimethylpyrido[1,2-a]indole-9-amine Hydrochloride] | – | ED50 ([1]; 30 minutes prior to testing, 100% nitrogen for 80 seconds): 13.5 mg/kg
CN1[C@@H]2C[C@@H](OC(=O)[C@H](CO)c3ccccc3)C[C@H]1[C@@H]1O[C@@H]12 [scopolamine] | – | memory effect of scopolamine (in words) [3]: impairs the rat's ability to remember to avoid the darkened enclosure
Br.Cc1c2n(c3ccc(O)cc13)CCC(C)(C)C2N1CCCC1 (stereo not drawn) [Example 33, 6,7,8,9-Tetrahydro-2-hydroxy-8,8,10-trimethyl-9-(1-pyrrolidinyl)-pyrido[1,2-a]indole Hydrobromide] | 20 mg/kg | –
CNC1CCCn2c1c(C)c1ccc(OC)cc12.Cl (stereo not drawn) [Example 27, 6,7,8,9-Tetrahydro-3-methoxy-N,10-dimethylpyrido[1,2-a]indol-9-amine Hydrochloride] | 15.1 mg/kg | –
Cc1c2n(c3ccc(Br)cc13)CCC(C)(C)C2N1CCCC1.Cl (stereo not drawn) [Example 17, 2-Bromo-6,7,8,9-tetrahydro-8,8,10-trimethyl-9-(1-pyrrolidinyl)pyrido[1,2-a]indole Hydrochloride] | 50 mg/kg | –
Cc1c2n(c3ccccc13)CCCC2N1CCCC1.Cl (stereo not drawn) [Example 2, 6,7,8,9-Tetrahydro-10-methyl-9-(1-pyrrolidinyl)pyrido[1,2-a]indole Hydrochloride] | 83.3 mg/kg | mean entry latency on retention day [2]: 135 s

Reference: patent US4624954A, “6,7,8,9-tetrahydro-10-methylpyrido[1,2-a]indol-9-amines and derivatives thereof, useful for the treatment of cognitive impairments” (American Home Products Corporation, priority 1985, dated 1986)
